Assay results: article PMC11609934, “Exploration and characterization of the antimalarial activity of cyclopropyl carboxamides that target the mitochondrial protein, cytochrome b” (European Journal of Medicinal Chemistry, 2024)
Where two headings read alike, the source gives them in different places.

Legend:
[1] = tested on: Pf Dd2 strain with an I22L mutation in the Qi site cyt b; assay: Cyt b resistant asexual stage assay, Dd2 cyt b(I22L); assay type: cell-based; conditions: Plasmodium falciparum, DD2, 72 h, read-out: Pf cyt b mutant strains EC50 (SD) Dd2 cyt b(I22L)
Method: To determine whether the cyclopropyl carboxamide series specifically targets the Qo site of cyt b, representative analogs W466 (1), W499 (2), and the focal compound here-on referred to as WJM280 (108) were evaluated against drug-resistant parasite strains with mutations in the Qo or Qi site of cyt b. […] These mutations are mapped to a model of cyt b in Fig. 3.
Cyt b Resistant and ScDHODH Asexual Stage Assays. These assays were conducted as previously described. Briefly, asexual parasite strains indicated in Table 12 were incubated with compound in a dose response format for 72 h. Parasitemia was determined using SYBR-green fluorescence measured by flow cytometry (Thermo Fisher Attune). EC50 values were determined as described for the LDH assay.

[2] = Human HepG2 growth inhibition assay (Cell TitreGlo, 48 h); assay type: cell-based; conditions: human, HepG2 cells, HepG2 cell growth inhibition over 48 h
Procedure, shortened: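 HepG2 cells (1000/well, DMEM + 10% FCS) exposed 48 h at 37 °C, 5% CO2 to compound from 50 μM top concentration in 1:2 dilutions, 0.5% DMSO final. Viability read by Cell Titer Glo, normalised to DMSO and 10 μM bortezomib; EC50 by four-parameter variable-slope fit.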

male gamete = assay: Dual gamete formation assay, male gametes; assay type: cell-based; conditions: Plasmodium falciparum; NF54 parasites in a DGFA, 4 replicates
Method: To determine whether the cyclopropyl carboxamide class has transmission blocking potential we profiled selected analogs in a dual gamete formation assay. In this assay, stage V gametocytes are treated with compound, and gametogenesis is induced by the addition of xanthurenic acid. Male gamete viability is determined by an imaging algorithm measuring motile flagellation, while female viability is measured using an antibody to the female-specific Pfs25 surface marker. […] Collectively, the activity observed against male gametes is consistent with activity observed with other cyt b inhibitors.
Dual Gamete Formation Assay. Compounds were evaluated as previously described as a platform run at both Imperial College London and the London School of Hygiene and Tropical Medicine. Briefly, mature stage V gametocytes were exposed to compounds for 48 h at 37 °C in 384 well plates in gametocyte culture medium (RPMI 1640 supplemented with 25 mM HEPES, 50 μg/mL hypoxanthine, 4.8 g/L NaHCO3, 2 mM L-glutamine, 5 % pooled type AB serum, 0.5 % Albumax II (Gibco)) under a 1 % O2/3 % CO2/96 % N2 environment. Gametogenesis was then triggered by the addition of 10 μL ookinete medium (gametocyte culture medium supplemented with 100 μM xanthurenic acid and 0.27 μg/mL Cy3-labelled anti-Pfs25 antibody) to each well at room temperature. Plates were then cooled on a metal block at 4 °C for 4 min to ensure even cooling and then stabilized for a further 4 min at 28 °C. At 20 min post-induction, male gametogenesis was recorded in each well by automated brightfield microscopy using a × 4 objective lens and 1.5 × magnifier ( × 6 effective magnification). Afterward, plates were incubated in the dark at room temperature for 24 h and then female gametogenesis recorded in each well by automated fluorescence microscopy (anti-Pfs25-positive cells). […] All data was evaluated in comparison to the positive and negative controls to calculate percentage inhibition of male and female gametocytes, and dose response analysis and EC50 calculation performed using GraphPad Prism.

[3] = tested on: W499-resistant populations; assay: microbe, parasite or virus in culture; assay type: cell-based, Plasmodium falciparum; conditions: for EC50: Plasmodium falciparum
Description: To confirm if W466 (1) and W499 (2) may have the same molecular target, W466 (1) and W499 (2) were each evaluated for cross resistance against their respective resistant populations from the pulsed forward genetic study (Fig. 2).

[4] = eLogD (shake-flask, pH 7.4); assay type: physicochemical; conditions: 1-octanol/phosphate buffered saline (1:1, v/v), Shake-flask method
Method: eLogD. The LogD (pH 7.4) assay was performed using a miniaturized shake flask method. A solution of a pre-saturated mixture of 1-octanol and phosphate buffered saline (PBS) (1:1, v/v) and the test compound (75 μM) was incubated at 25 °C with constant shaking (850 rpm) for 2 h. After incubation the organic and aqueous phases were separated, and samples of each phase transferred to plate for dilution. The organic phase was diluted to 1000-fold and the aqueous phase was diluted 20-fold. The samples were quantitated using LC-MS/MS. The experiment was carried out in duplicate. Propranolol, amitriptyline, and midazolam were used as reference standards.

Dd2-B2 = assay: 72 h SYBR Green I / MitoTracker flow cytometry assay, Dd2-B2; assay type: cell-based; conditions: Plasmodium falciparum, DD2, 72 h
Method: MIR assay.Plasmodium falciparum asexual blood stage (ABS) parasites were cultured at 3 % hematocrit in human O^+ RBCs in RPMI-1640 media, supplemented with 25 mM HEPES, 50 mg/L hypoxanthine, 2 mM L-glutamine, 0.21 % sodium bicarbonate, 0.5 % (wt/vol) AlbuMAXII (Invitrogen) and 10 μg/mL gentamycin, in modular incubator chambers (Billups- Rothenberg) at 5 % O2, 5 % CO2 and 90 % N2 at 37 °C. Dd2 parasites were obtained from T. Wellems (NIAID, NIH). Dd2-B2 is a genetically homogenous line that was cloned from Dd2 by limiting dilution in the Fidock lab. Dd2-Polδ is a line edited in the Fidock Lab to have a hypermutable polymerase. […] Parasite survival was assessed by flow cytometry on an iQue flow cytometer (Sartorius) using SYBR Green and MitoTracker Deep Red FM (Life Technologies) as nuclear stain and vital dyes respectively.

Row | SMILES | EC50 [1] | CC50 at 48 h [2] | EC50 (male gamete) | fold shift in EC50 against W499-resistant populations compared to wildtype 3D7 [3] | EC50 ([3]; read-out: W499-resistant population #2 EC50) | EC50 ([3]; read-out: W499-resistant population #3 EC50) | logD at 2 h [4] | IC50 (Dd2-B2; read-out: IC50 Dd2-B2) | IC90 (Dd2-B2; read-out: IC90 Dd2-B2)
1 | O=C(NC1CC1)c1ccc(CN(Cc2ccc(Cl)cc2Cl)C2CC2)cc1 [W499 (2)] | 49 nM | > 40000 nM | 760 nM | 1.6–1.9 fold | 206 nM | 177 nM | 4.1 | 112 nM | 224 nM
2 | CCCN(Cc1ccc(C(=O)NC2CC2)cc1)Cc1ccc(C(F)(F)F)cc1 [WJM280 (108), N-Cyclopropyl-4-((propyl(4-(trifluoromethyl)benzyl)amino)methyl)benzamide] | 2 nM | 15000 nM |  |  |  |  | 5.2 |  | 
